Patent EP2758401B1 (Bayer Intellectual Property GmbH, priority 2011, dated 2013)
Structures can show the parent of a compound that is named as a salt.

Columns and labels:
MKNK1 [1] = target: T1, MKNK1 (Homo sapiens, UniProt Q9BUB5, T385D); assay: MKNK1 kinase assay (TR-FRET); assay type: biochemical; details: ATP final conc. 10 µM; 15 min pre-incubation; reaction time 45 min at 22°C
T1 construct: GST (N); purchased Carna Biosciences 02-145; host or cells: insect cells (baculovirus expression system)
T1 sequence (Q9BUB5 1-424 isoform Q9BUB5-2 T344D): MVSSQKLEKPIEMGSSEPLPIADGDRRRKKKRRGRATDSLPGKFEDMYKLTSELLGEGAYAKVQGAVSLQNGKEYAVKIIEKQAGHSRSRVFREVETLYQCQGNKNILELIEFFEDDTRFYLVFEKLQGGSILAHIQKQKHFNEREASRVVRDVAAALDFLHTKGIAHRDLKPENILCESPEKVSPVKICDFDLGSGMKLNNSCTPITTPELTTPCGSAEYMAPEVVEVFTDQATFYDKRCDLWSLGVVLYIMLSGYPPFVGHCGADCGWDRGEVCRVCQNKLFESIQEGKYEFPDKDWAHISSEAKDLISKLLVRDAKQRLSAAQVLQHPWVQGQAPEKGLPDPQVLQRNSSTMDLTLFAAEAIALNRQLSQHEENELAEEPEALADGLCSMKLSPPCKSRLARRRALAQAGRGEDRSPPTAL
Procedure: MKNK1-inhibitory activity of compounds of the present invention was quantified employing the MKNK1 TR-FRET assay as described in the following paragraphs.
As substrate for the kinase reaction the biotinylated peptide biotin-Ahx-[…] (C-terminus in amide form) was used which can be purchased e.g. form the company Biosyntan (Berlin-Buch, Germany).
For the assay 50 nL of a 100fold concentrated solution of the test compound in DMSO was pipetted into a black low volume 384well microtiter plate (Greiner Bio-One, Frickenhausen, Germany), 2 µL of a solution of MKNK1 in aqueous assay buffer [50 mM HEPES pH 7.5, 5 mM magnesium chloride, 1.0 mM dithiothreitol, 0.005% (v/v) Nonidet-P40 (Sigma)] was added and the mixture was incubated for 15 min at 22°C to allow pre-binding of the test compounds to the enzyme before the start of the kinase reaction. Then the kinase reaction was started by the addition of 3 µL of a solution of adenosine-tri-phosphate (ATP, 16.7 µM => final conc. in the 5 µL assay volume is 10 µM) and substrate (0.1 µM => final conc. in the 5 µL assay volume is 0.06 µM) in assay buffer and the resulting mixture was incubated for a reaction time of 45 min at 22°C.
The resulting mixture was incubated for 1 h at 22°C to allow the formation of complex between the phosphorylated biotinylated peptide and the detection reagents. Subsequently the amount of phosphorylated substrate was evaluated by measurement of the resonance energy transfer from the Eu-chelate to the streptavidine-XL. Therefore, the fluorescence emissions at 620 nm and 665 nm after excitation at 350 nm were measured in a TR-FRET reader, e.g. a Rubystar (BMG Labtechnologies, Offenburg, Germany) or a Viewlux (Perkin-Elmer). The ratio of the emissions at 665 nm and at […] was taken as the measure for the amount of phosphorylated substrate. The data were normalised (enzyme reaction without inhibitor = 0 % inhibition, all other assay components but no enzyme = 100 % inhibition). […] Table 1: MKNK1 IC50s

MKNK1 [2] = target: T1, MKNK1; assay: MKNK1 kinase high ATP assay (TR-FRET); assay type: biochemical; details: ATP final conc. 2 mM; 15 min pre-incubation; reaction time 30 min at 22°C
Procedure: MKNK1-inhibitory activity at high ATP of compounds of the present invention after their preincubation with MKNK1 was quantified employing the TR-FRET-based MKNK1 high ATP assay as described in the following paragraphs.
As substrate for the kinase reaction the biotinylated peptide biotin-Ahx-[…] (C-terminus in amide form) was used, which can be purchased e.g. from the company Biosyntan (Berlin-Buch, Germany).
For the assay 50 nL of a 100fold concentrated solution of the test compound in DMSO was pipetted into a black low volume 384well microtiter plate (Greiner Bio-One, Frickenhausen, Germany), 2 µL of a solution of MKNK1 in aqueous assay buffer [50 mM HEPES pH 7.5, 5 mM magnesium chloride, 1.0 mM dithiothreitol, 0.005% (v/v) Nonidet-P40 (Sigma)] was added and the mixture was incubated for 15 min at 22°C to allow pre-binding of the test compounds to the enzyme before the start of the kinase reaction. Then the kinase reaction was started by the addition of 3 µL of a solution of adenosine-tri-phosphate (ATP, 3.3 mM => final conc. in the 5 µL assay volume is 2 mM) and substrate (0.1 µM => final conc. in the 5 µL assay volume is 0.06 µM) in assay buffer and the resulting mixture was incubated for a reaction time of 30 min at 22°C. The concentration of MKNK1 was adjusted depending of the activity of the enzyme lot and was chosen appropriate to have the assay in the linear range, typical concentrations were in the range of 0.003 µg/mL. The reaction was stopped by the addition of 5 µL of a solution of TR-FRET detection reagents (5 nM streptavidine-XL665 [Cisbio Bioassays, Codolet, France] and 1 nM anti-ribosomal protein S6 (pSer236)-antibody from Invitrogen [# 44921G] and 1 nM LANCE EU-W1024 labeled ProteinG [Perkin-Elmer, product no. AD0071]) in an aqueous EDTA-solution (100 mM EDTA, 0.1 % (w/v) bovine serum albumin in 50 mM HEPES pH 7.5).
The resulting mixture was incubated for 1 h at 22°C to allow the formation of complex between the phosphorylated biotinylated peptide and the detection reagents. Subsequently the amount of phosphorylated substrate was evaluated by measurement of the resonance energy transfer from the Eu-chelate to the streptavidine-XL. Therefore, the fluorescence emissions at 620 nm and 665 nm after excitation at 350 nm were measured in a TR-FRET reader, e.g. a Rubystar (BMG Labtechnologies, Offenburg, Germany) or a Viewlux (Perkin-Elmer). The ratio of the emissions at 665 nm and at […] was taken as the measure for the amount of phosphorylated substrate. The data were normalised (enzyme reaction without inhibitor = 0 % inhibition, all other assay components but no enzyme = 100 % inhibition).

| Structure (SMILES) | IC50 (MKNK1 [1]) | IC50 (MKNK1 [2]) |
| --- | --- | --- |
| N[C@H]1C[C@H](COc2ccc3ncc(-c4cc5ccccc5o4)n3n2)C1 [Example 22, trans-3-({[3-(1-Benzofuran-2-yl)imidazo[1,2-b]pyridazin-6-yl]oxy}methyl)cyclobutanamine] | 6 nM | 17 nM |
| N[C@@H](COc1ccc2ncc(-c3cc4ccccc4o3)n2n1)c1ccccc1 [Example 18, (1R)-2-{[3-(1-Benzofuran-2-yl)imidazo[1,2-b]pyridazin-6-yl]oxy}-1-phenyl-ethanamine] | 22 nM | 33 nM |
| Cc1ccc2oc(-c3cnc4ccc(O[C@H](C)CN)nn34)cc2c1 [Example 49] | 88 nM | 154 nM |
| NC[C@H]1C[C@H](Oc2ccc3ncc(-c4cc5ccccc5o4)n3n2)C1 [Example 20, 1-(trans-3-{[3-(1-Benzofuran-2-yl)imidazo[1,2-b]pyridazin-6-yl]oxy}cyclobutyl)-methanamine] | 4 nM | 6 nM |
| N[C@H]1C[C@H](Oc2ccc3ncc(-c4cc5c(F)cccc5o4)n3n2)C1 [Example 36, trans-3-{[3-(4-Fluoro-1-benzofuran-2-yl)imidazo[1,2-b]pyridazin-6-yl]oxy}-cyclobutanamine] | 1 nM | 2 nM |
| CC(C)(N)CCOc1ccc2ncc(-c3cc4ccccc4o3)n2n1 [Example 14, 4-{[3-(1-Benzofuran-2-yl)imidazo[1,2-b]pyridazin-6-yl]oxy}-2-methylbutan-2-amine] | 20 nM | 39 nM |
| N[C@H]1C[C@H](Oc2ccc3ncc(-c4cc5cc(F)ccc5o4)n3n2)C1 [Example 39, trans-3-{[3-(5-Fluoro-1-benzofuran-2-yl)imidazo[1,2-b]pyridazin-6-yl]oxy}-cyclobutanamine] | 3 nM | 6 nM |
| N[C@H]1C[C@H](Oc2ccc3ncc(-c4cc5ccccc5o4)n3n2)C1 [Example 2, trans-3-{[3-(1-Benzofuran-2-yl)imidazo[1,2-b]pyridazin-6-yl]oxy}cyclobutan-amine] | 5 nM | 6 nM |
| C[C@H](CN)Oc1ccc2ncc(-c3cc4cccc(F)c4o3)n2n1 [Example 48, (2R)-2-{[3-(7-Fluoro-1-benzofuran-2-yl)imidazo[1,2-b]pyridazin-6-yl]oxy}-propan-1-amine] | 71 nM | 115 nM |
| NCCOc1ccc2ncc(-c3cc4ccccc4o3)n2n1 [Example 12, 2-{[3-(1-Benzofuran-2-yl)imidazo[1,2-b]pyridazin-6-yl]oxy}ethanamine] | 10 nM | 27 nM |
| N[C@H](COc1ccc2ncc(-c3cc4ccccc4o3)n2n1)c1ccccc1 [Example 17, (1S)-2-{[3-(1-Benzofuran-2-yl)imidazo[1,2-b]pyridazin-6-yl]oxy}-1-phenylethan-amine] | 6 nM | 10 nM |
| N[C@H]1C[C@H](Oc2ccc3ncc(-c4cc5cc(Cl)ccc5o4)n3n2)C1 [Example 37, trans-3-{[3-(5-Chloro-1-benzofuran-2-yl)imidazo[1,2-b]pyridazin-6-yl]oxy}-cyclobutanamine] | 4 nM | 5 nM |
| N[C@H](COc1ccc2ncc(-c3cc4cc(Cl)ccc4o3)n2n1)c1ccccc1 [Example 19, (1S)-2-{[3-(5-Chloro-1-benzofuran-2-yl)imidazo[1,2-b]pyridazin-6-yl]oxy}-1-phenylethanamine] | 25 nM | 111 nM |
| N[C@H](COc1ccc2ncc(-c3cc4c(F)cccc4o3)n2n1)c1ccccc1 [Example 46, (1S)-2-{[3-(4-Fluoro-1-benzofuran-2-yl)imidazo[1,2-b]pyridazin-6-yl]oxy}-1-phenylethanamine] | 36 nM | 67 nM |
| NCC(CN)Oc1ccc2ncc(-c3cc4ccccc4o3)n2n1 [Example 34, 2-{[3-(1-Benzofuran-2-yl)imidazo[1,2-b]pyridazin-6-yl]oxy}propane-1,3-diamine] | 39 nM | 92 nM |
| NCC(COc1ccc2ncc(-c3cc4ccccc4o3)n2n1)c1ccccc1 (stereo not shown) [Example 52, 3-{[3-(1-Benzofuran-2-yl)imidazo[1,2-b]pyridazin-6-yl]oxy}-2-phenylpropan-1-amine] | 17 nM | 30 nM |
| COc1ccc2oc(-c3cnc4ccc(OCCN)nn34)cc2c1 [Example 6, 2-{[3-(5-Methoxy-1-benzofuran-2-yl)imidazo[1,2-b]pyridazin-6-yl]oxy}ethan-amine] | 6 nM | 13 nM |
| NCC(Cc1ccccc1)Oc1ccc2ncc(-c3cc4ccccc4o3)n2n1 (stereo not shown) [Example 26, 2-{[3-(1-Benzofuran-2-yl)imidazo[1,2-b]pyridazin-6-yl]oxy}-3-phenylpropan-1-amine salt with formic acid] | 15 nM | 25 nM |
| NC1(COc2ccc3ncc(-c4cc5ccccc5o4)n3n2)CC1 [Example 51, 1-({[3-(1-Benzofuran-2-yl)imidazo[1,2-b]pyridazin-6-yl]oxy}methyl)cyclo-propanamine] | 29 nM | 74 nM |
| COc1cccc2oc(-c3cnc4ccc(OCC(N)C5CC5)nn34)cc12 (stereo not shown) [Example 41, 1-Cyclopropyl-2-{[3-(4-methoxy-1-benzofuran-2-yl)imidazo[1,2-b]pyridazin-6-yl]oxy}ethanamine] | 12 nM | 27 nM |
| C[C@@H](N)COc1ccc2ncc(-c3cc4cc(Cl)ccc4o3)n2n1 [Example 43, (2R)-1-{[3-(5-Chloro-1-benzofuran-2-yl)imidazo[1,2-b]pyridazin-6-yl]oxy}-propan-2-amine] | 33 nM | 62 nM |
| NCC(Oc1ccc2ncc(-c3cc4ccccc4o3)n2n1)C1CC1 (stereo not shown) [Example 30, 2-{[3-(1-Benzofuran-2-yl)imidazo[1,2-b]pyridazin-6-yl]oxy}-2-cyclopropylethan-amine] | 41 nM | 75 nM |
| N[C@H](COc1ccc2ncc(-c3cc4ccccc4o3)n2n1)Cc1ccccc1 [Example 50, (2S)-1-{[3-(1-Benzofuran-2-yl)imidazo[1,2-b]pyridazin-6-yl]oxy}-3-phenyl-propan-2-amine] | 27 nM | 54 nM |
| C[C@H](N)COc1ccc2ncc(-c3cc4ccccc4o3)n2n1 [Example 7, (2S)-1-{[3-(1-Benzofuran-2-yl)imidazo[1,2-b]pyridazin-6-yl]oxy}propan-2-amine] | 7 nM | 18 nM |
| NC[C@H](Oc1ccc2ncc(-c3cc4ccccc4o3)n2n1)c1ccccc1 [Example 16, (2R)-2-{[3-(1-Benzofuran-2-yl)imidazo[1,2-b]pyridazin-6-yl]oxy}-2-phenylethan-amine] | 26 nM | 49 nM |
| COc1cccc2oc(-c3cnc4ccc(OCCCCN)nn34)cc12 [Example 1, 4-{[3-(4-Methoxy-1-benzofuran-2-yl)imidazo[1,2-b]pyridazin-6-yl]oxy}butan-1-amine] | 3 nM | 5 nM |
